Data reported in patent publication US20190233884A1 (University of Southern California, priority 2016, published 2019).

Test system: patients with refractory metastatic colorectal cancer (mCRC)
Assay: PFS, OS and disease control in the testing (validation) cohort of refractory mCRC patients receiving TAS-102 (n=129, Italy), by baseline characteristics, SNP genotype and toxicity
Format: in vivo, human
Conditions: for HR OS (95% CI) / HR PFS (95% CI): ATM rs609429 Any G vs C/C (Ref.)
Procedure: All patients underwent the treatment in salvage-line setting. […]
(§1) Genomic DNA was extracted from peripheral whole blood in patients of all cohorts using the QIAmp Kit (Qiagen, Valencia, Calif., USA) according to the manufacturer's protocol (www.qiagen.com). The candidate SNPs were genotyped using PCR-based direct DNA sequence analysis by ABI 3100A Capillary Genetic Analyzer and Sequencing Scanner v1.0 (Applied Biosystems). Amplification of extracted DNA was carried out using both forward and reverse primers for each gene polymorphism as shown in Table 1. […] The investigators analyzing SNPs were blinded to the clinical data of the study patients.
The primary endpoint in this study was progression-free survival (PFS), and the secondary endpoints were overall survival (OS) and disease control rate (DCR). PFS was calculated from the date of starting treatment to the first observation of disease progression or death from any cause. If a patient had no disease progression or death, PFS was censored at the date of last follow up. OS was calculated from the date of starting treatment until the date of death from any cause or the date of the last follow-up, at which point OS was censored. The disease control rate (DCR) was defined as the proportion of patients who achieved a stable disease (SD) or […] according to RECISTv1.1. Chi-square test was used to examine the difference in baseline patient characteristics among the three cohorts. Allelic distribution of all SNPs by ethnicity for deviation from Hardy-Weinberg equilibrium and the allelic frequencies of SNPs were tested using the Chi-square tests with one degree of freedom. The associations between candidate SNPs and disease control, and toxicities were examined using contingency tables and Fisher's exact test. The associations of SNPs with PFS and OS were analysed using Kaplan-Meier curves and the log-rank test. Because the true mode of inheritance of candidate SNPs was not established yet, a codominant or dominant genetic model if appropriate was considered.
All patients underwent the treatment in salvage-line setting. […] In all patients, adverse events were graded according to the Common Terminology Criteria for Adverse Events, version 4.0. […]
as §1, with “tested” for “genotyped”, “Biosystems).” for “Biosystems). Amplification of extracted DNA was carried out using both forward and reverse primers for each gene polymorphism as shown in Table 1.”, “data.” for “data of the study patients.”
The primary endpoint in this study was progression-free survival (PFS), and the secondary endpoints were overall survival (OS) and disease control rate (DCR).

[1] = testing cohort, hENT1 rs750370 A/A
[2] = testing cohort, hENT1 rs750370 A/G
[3] = testing cohort, hENT1 rs750370 A/G vs A/A
[4] = testing cohort, hENT1 rs750370 Any G
[5] = testing cohort, hENT1 rs750370 Any G vs A/A
[6] = testing cohort, hENT1 rs750370 G/G
[7] = testing cohort, hENT1 rs750370 G/G vs A/A
[8] = testing cohort, hENT1 rs760370, multivariable adjusted for age group, liver metastasis, ECOG, previous anti-EGFR
[9] = testing cohort, hENT1 rs760370 A/A
[10] = testing cohort, hENT1 rs760370 any G allele
[11] = testing cohort, hENT1 rs760370 any G vs A/A, univariate
[12] = testing cohort, hENT1 rs9394992 Any T
[13] = testing cohort, hENT1 rs9394992 Any T vs C/C
[14] = testing cohort, hENT1 rs9394992 C/C
[15] = testing cohort, hENT1 rs9394992 C/T
[16] = testing cohort, hENT1 rs9394992 C/T vs C/C
[17] = testing cohort, hENT1 rs9394992 T/T
[18] = testing cohort, hENT1 rs9394992 T/T vs C/C
[19] = testing cohort, hENT1370_OCT019 Excellent
[20] = testing cohort, hENT1370_OCT019 Fair
[21] = testing cohort, hENT1370_OCT019 Fair vs Poor
[22] = testing cohort, hENT1370_OCT019 Good
[23] = testing cohort, hENT1370_OCT019 Good and Excellent combined
[24] = testing cohort, hENT1370_OCT019 Good and Excellent combined vs Poor
[25] = testing cohort, hENT1370_OCT019 Poor
[26] = testing/validation cohort, grade 3≤ neutropenia
[27] = testing/validation cohort, grade 3≤ neutropenia vs less than grade 3
[28] = testing/validation cohort, neutropenia less than grade 3
[29] = validation cohort, ATM rs609429 Any G
[30] = validation cohort, multivariable
[31] = validation cohort, ATM rs609429 C/C

Trifluridine/tipiracil [TAS-102]
Disease Control Rate SD [1]: 9 (20%) | Overall Survival Median, months (95% CI) [1]: 3.9 (3.3, 5.5) months | Progression-free Survival Median, months (95% CI) [1]: 1.9 (1.7, 2.0) months | Disease Control Rate PD [2]: 42 (66%) | Disease Control Rate SD [2]: 22 (34%) | Progression-free Survival Median, months (95% CI) [2]: 2.1 (1.9, 2.5) months | Overall Survival HR (95% CI) multivariate [3]: 0.50 (0.28, 0.89) | Overall Survival HR (95% CI) univariate [3]: 0.48 (0.27, 0.85) | Progression-free Survival HR (95% CI) multivariate [3]: 0.58 (0.37, 0.89) | Progression-free Survival HR (95% CI) univariate [3]: 0.59 (0.38, 0.90) | Disease Control Rate PD [4]: 55 (66%) | Disease Control Rate SD [4]: 28 (34%) | Overall Survival Median, months (95% CI) [4]: 9.0 (5.1, 9.0+) months | Progression-free Survival Median, months (95% CI) [4]: 2.1 (1.9, 2.4) months | Overall Survival HR (95% CI) multivariate [5]: 0.54 (0.31, 0.93) | Overall Survival HR (95% CI) univariate [5]: 0.50 (0.29, 0.86) | Progression-free Survival HR (95% CI) multivariate [5]: 0.65 (0.43, 0.98) | Progression-free Survival HR (95% CI) univariate [5]: 0.64 (0.43, 0.95) | Disease Control Rate PD [6]: 13 (68%) | Disease Control Rate SD [6]: 6 (32%) | Overall Survival Median, months (95% CI) [6]: 9.0 (2.9, 9.0+) months | Progression-free Survival Median, months (95% CI) [6]: 2.0 (1.6, 2.5) months | Overall Survival HR (95% CI) multivariate [7]: 0.78 (0.31, 1.99) | Overall Survival HR (95% CI) univariate [7]: 0.58 (0.24, 1.41) | Progression-free Survival HR (95% CI) multivariate [7]: 1.00 (0.55, 1.80) | Progression-free Survival HR (95% CI) univariate [7]: 0.86 (0.48, 1.55) | HR for OS [8]: 0.54 | HR for PFS [8]: 0.65 | OS [9]: 3.9 months | PFS [9]: 1.9 months | OS [10]: 9.0 months | PFS [10]: 2.1 months | HR for OS [11]: 0.50 | HR for PFS [11]: 0.64 | Disease Control Rate PD [12]: 50 (71%) | Disease Control Rate SD [12]: 20 (29%) | Overall Survival Median, months (95% CI) [12]: 5.2 (3.7, 9.0+) months | Progression-free Survival Median, months (95% CI) [12]: 2.0 (1.9, 2.4) months | Overall Survival HR (95% CI) multivariate [13]: 1.19 (0.69, 2.07) | Overall Survival HR (95% CI) univariate [13]: 1.31 (0.76, 2.27) | Progression-free Survival HR (95% CI) multivariate [13]: 0.81 (0.54, 1.19) | Progression-free Survival HR (95% CI) univariate [13]: 0.92 (0.62, 1.35) | Disease Control Rate PD [14]: 41 (71%) | Disease Control Rate SD [14]: 17 (29%) | Overall Survival Median, months (95% CI) [14]: 5.8 (4.7, 8.8+) months | Progression-free Survival Median, months (95% CI) [14]: 2.0 (1.9, 2.1) months | Disease Control Rate PD [15]: 41 (71%) | Disease Control Rate SD [15]: 17 (29%) | Overall Survival Median, months (95% CI) [15]: 4.4 (3.6, 9.0+) months | Progression-free Survival Median, months (95% CI) [15]: 2.0 (1.8, 2.3) months | Overall Survival HR (95% CI) multivariate [16]: 1.23 (0.69, 2.18) | Overall Survival HR (95% CI) univariate [16]: 1.38 (0.78, 2.43) | Progression-free Survival HR (95% CI) multivariate [16]: 0.81 (0.54, 1.22) | Progression-free Survival HR (95% CI) univariate [16]: 0.92 (0.61, 1.38) | Disease Control Rate PD [17]: 9 (75%) | Disease Control Rate SD [17]: 3 (25%) | Progression-free Survival Median, months (95% CI) [17]: 2.5 (0.4, 3.9) months | Overall Survival HR (95% CI) multivariate [18]: 1.02 (0.38, 2.71) | Overall Survival HR (95% CI) univariate [18]: 1.06 (0.40, 2.79) | Progression-free Survival HR (95% CI) multivariate [18]: 0.79 (0.39, 1.58) | Progression-free Survival HR (95% CI) univariate [18]: 0.90 (0.45, 1.78) | Disease Control Rate PD [19]: 38 (64%) | Disease Control Rate SD [19]: 21 (36%) | Disease Control Rate PD [20]: 25 (81%) | Disease Control Rate SD [20]: 6 (19%) | Overall Survival Median, months (95% CI) [20]: 4.0 (3.1, 8.8) months | Progression-free Survival Median, months (95% CI) [20]: 1.9 (1.6, 2.0) months | Overall Survival HR (95% CI) multivariate [21]: 0.58 (0.25, 1.37) | Overall Survival HR (95% CI) univariate [21]: 0.77 (0.34, 1.75) | Progression-free Survival HR (95% CI) multivariate [21]: 1.13 (0.57, 2.24) | Progression-free Survival HR (95% CI) univariate [21]: 1.24 (0.64, 2.40) | Disease Control Rate PD [22]: 17 (71%) | Disease Control Rate SD [22]: 7 (29%) | Overall Survival Median, months (95% CI) [23]: 9.0 (5.1, 9.0) months | Progression-free Survival Median, months (95% CI) [23]: 2.1 (1.9, 2.4) months | Overall Survival HR (95% CI) multivariate [24]: 0.37 (0.17, 0.80) | Overall Survival HR (95% CI) univariate [24]: 0.42 (0.20, 0.90) | Progression-free Survival HR (95% CI) multivariate [24]: 0.71 (0.38, 1.30) | Progression-free Survival HR (95% CI) univariate [24]: 0.73 (0.40, 1.34) | Disease Control Rate PD [25]: 11 (79%) | Disease Control Rate SD [25]: 3 (21%) | Overall Survival Median, months (95% CI) [25]: 3.6 (2.3, 8.5) months | Progression-free Survival Median, months (95% CI) [25]: 2.0 (1.7, 2.4) months | Progression-free Survival Median, months (95% CI) (testing cohort, per OCT2 rs316000 genotype (row), OCT2 rs316000 A/A genotype): 2.0 (1.9, 2.1) months | Progression-free Survival Median, months (95% CI) (testing cohort, per OCT2 rs316000 genotype (row), OCT2 rs316000 A/G genotype): 1.9 (1.7, 2.4) months | Progression-free Survival Median, months (95% CI) (testing cohort, per OCT2 rs316000 genotype (row), OCT2 rs316000 Any G genotype): 1.9 (1.8, 2.6) months | Progression-free Survival Median, months (95% CI) (testing cohort, per OCT2 rs316000 genotype (row), OCT2 rs316000 G/G genotype): 3.7 (1.7, 6.8+) months | OS [26]: 8.8 months | PFS [26]: 2.3 months | HR for OS [27]: 0.21 | HR for PFS [27]: 0.50 | OS [28]: 3.7 months | PFS [28]: 1.9 months | Disease Control CR/PR/SD, patients n (%) [29]: 26 (33%) | Median PFS (95% CI) [29]: 2.0 (1.9, 2.3) months | PD, patients n (%) [29]: 52 (67%) | HR OS (95% CI) [30]: 0.80 (0.45, 1.41) | HR PFS (95% CI) [30]: 0.85 (0.56, 1.29) | HR OS (95% CI) (validation cohort, univariate): 0.73 (0.43, 1.25) | HR PFS (95% CI) (validation cohort, univariate): 0.78 (0.52, 1.16) | Disease Control CR/PR/SD, patients n (%) [31]: 11 (22%) | Median OS (95% CI) [31]: 4.4 (3.7, 9.0+) months | Median PFS (95% CI) [31]: 1.9 (1.8, 2.3) months | OS [31]: 4.4 months | PD, patients n (%) [31]: 39 (78%) | PFS [31]: 1.9 months
